Laboratory results published in patent US9458196B2, “Synthetic peptides capable of binding to influenza hemagglutinin protein” (priority 2012, dated 2016).

System: HA proteins from five different viral strains H1N1, H5N1, H9N2, H3N2 and H14N5
Assay type: biochemical, influenza virus

Row | Sequence | ability to block pH triggered shape changes / low pH induced association of HA proteins
1 | AERPKVRGQAGRMN [LPF54] | ability to block pH triggered shape changes
2 | KEFNNLEKR [PF42] | ability to block pH triggered shape changes
3 | KEFSEVEGR [PF41] | ability to block pH triggered shape changes
4 | PGDFNDYE [PF13] | ability to block pH triggered shape changes
5 | PYDVPDYA [PF12] | ability to block pH triggered shape changes
6 | PYDVPDYE [PF11] | ability to block pH triggered shape changes
7 | TKRSQQTVIP [PF31] | ability to block pH triggered shape changes
8 | TSRSQQTVIP [PF32] | ability to block pH triggered shape changes
